Assay results: patent US11510407B2, “Compositions and methods for reducing ice crystal formation” (X-THERMA, INC., priority 2015, dated 2022)
“Also recorded” adds a separate entry of the source.

Assays:
[1] = Crystallographic x-ray diffraction (XRD) ice crystal formation assay; format: physicochemical; settings: for reduction of necessary EG concentration while preventing ice formation (ice ring scores, FIG. 3D): 1 and 5 mg/mL compound, EG 15% to 30% (v/v)
Method: In order to increase the throughput of library analysis, a crystallographic x-ray diffraction (XRD) technique was used to evaluate ice crystal formation. For these experiments, the compounds named “Compound 2,” “Compound 8,” “Compound 10,” “Compound 11,” “Compound 12,” “Compound 13,” and “Compound 58” were tested. Compound 58 is similar to Compound 12, except that an arginine amino acid has been appended to the N-terminal end.
For these experiments, EG concentrations between 15% and 30% (v/v) were used. Typically, EG, DMSO, and other cryoprotectants are used during XRD sample analysis at concentrations of 35-40% (v/v) to vitrify solutions and avoid diffraction interference from ice crystals. Concentrations of 1 and 5 mg/mL of the peptoid and peptoid-peptide compounds were used. […] FIG. 3D provides ice rings scores for a variety of EG concentrations and two concentrations of Compounds 2, 8, and 12.
“IceRing1” and “IceRing2” refer to ice formation scores, which range between 0 (no ice formation) and 15 (large ice formation).
The sample containing Compound 12 at a concentration of 5 mg/mL (0.5% (w/v)) and EG at a concentration of 17.5% (v/v) in water was ice-free after flash freezing. […] In the figures, black spots and rings represent ice crystals.

HEK 293 cell line = assay: Cytotoxicity assay (MTT); format: cell-based, human
Method: A Tecan Genesis Robotic Workstation was used to prepare solutions in 96- and 384-well plates. Solutions contained culture media, buffers, a cryoprotectant composition of the present invention (Compound 12) or DMSO. Solutions were adjusted to the desired pH. Serial dilutions were performed to obtain solutions containing various concentrations of Compound 12 and DMSO. Control experiments were performed using only culture media.
For these experiments, cells were seeded at low density (i.e., 10% confluence), exposed to solutions containing Compound 12 or DMSO, and placed in a 37° C. incubator. The cells were allowed to grow until control cells that were treated only with empty vehicle approached 70% confluence (typically about 3 to 5 days). Assessment for compound cytotoxicity was via MTT assay.

[2] = 160 mM ethylene glycol in MilliQ water, slow cooled, −20° C., one hour
Method: In this experiment, four water-based samples were prepared in capillary tubes containing MilliQ purified water. One sample contained only water, and another sample contained 160 mM ethylene glycol (EG). The other two samples each contained a peptoid polymer at 9 mM. One of the peptoid polymer samples contained the peptoid polymer called “Compound 1,” while the other sample contained the peptoid polymer called “Compound 10.” The sequences of the peptoid polymers are as follows:
After sample preparation, all samples were slow cooled and incubated at −20° C. on a Peltier cooled plate. After one hour, samples were removed and immediately photographed using a digital camera attached to a 180× Stereo Zoom microscope (FIG. 2A).

[3] = Larger volume flash freeze / rewarm / −20° C. storage assay; format: physicochemical
Method: In order to test the usefulness of compositions of the present invention at larger scales, experiments were performed using solution volumes that are similar to volumes used for standard egg and stem cell preservation. For these experiments, two samples, one containing 22.5% EG and buffer only, and another containing 22.5% EG and 5 mg/ml (0.5% w/v) of Compound 12 and buffer, were flash frozen in liquid nitrogen. […] The rewarming of the solutions in a 37° C. water bath led to an unexpected and beneficial result. The Compound 12 solution bypassed devitrification in less than 2 seconds upon rewarming (FIG. 6B, right), whereas chunks of ice were seen floating in the control sample (FIG. 6B, left) after 20 seconds. Condensation was seen on each of the tubes because the tubes were actually still much below room temperature.

HEK 293 cells = assay: Cryopreservation assay (flash freeze-thaw, Calcein AM viability); format: cell-based, human
Method: Initial cryopreservation assays were performed using very simple solutions, with and without the addition of Compound 12, in order to minimize confounding outside factors. For this first set of experiments, two sample solutions were prepared. The first sample solution contained simple buffer and ethylene glycol (EG) at a concentration of 22.5% (v/v), and the second sample solution contained simple buffer, EG (22.5% (v/v)), and 5 mg/mL (0.5% (w/v)) of Compound 12.
HEK 293 cells were grown until 70% confluent, then treated with trypsin to remove adhesion proteins and yield free floating cells. Cells were counted using a hemocytometer and sample cell concentrations were adjusted to final concentrations of 10,000 cells per microliter. Cells were then compressed into tight pellets by centrifugation, and each sample was subsequently mixed with 20 μL of one of the sample solutions. Samples were then flash frozen by immersion in liquid nitrogen, followed by rewarming in a 37° C. water bath. After the freeze-thaw process, cells were suspended in a 400× volume of culture media for recovery. The positive control sample was treated with culture media at 37° C. and not subjected to the freeze-thaw process. The negative control sample was treated with culture media only during the freeze-thaw process. After recovery, cells were stained with Calcein AM for 30 minutes and cell viability was measured using a fluorescence plate reader.
A second set of experiments was performed to evaluate the cryopreservation potential of a formulation that contained 5 mg/mL of Compound 12 plus a mixture of glycols, disaccharides, and a general buffer. Post-thaw survival following vitrification in liquid nitrogen was evaluated as described above.

[4] = buffer + EG 22.5% (v/v) + 5 mg/mL Compound 12 with HEK 293 cells

Q: For `CCC(C)NCC(=O)N(CC(=O)N(CC(=O)N(CC(=O)N(CC(=O)N(CC(=O)N(CC(=O)N(CC(=O)N(CC(=O)N(CC(N)=O)CC(C)O)CC(C)O)CC(C)O)C(C)CC)CC(C)O)CC(C)O)CC(C)O)CC(C)O)CC(C)O` (stereo not drawn) [Compound 8, Nsb-Nhp-Nhp-Nhp-Nhp-Nhp-Nsb-Nhp-Nhp-Nhp], which “reduction of necessary EG concentration while preventing ice formation (ice ring scores, FIG. 3D)” value [1] is on record?
A: The value was “significantly reduced necessary EG concentrations while preventing ice formation”.

Q: Which “concentration above which warm survival for an extended period of time was not allowed” value (HEK 293 cell line; HEK 293, MTT assay) does the source give for `C[S+](C)[O-]` [DMSO, dimethyl sulfoxide, reference compound] here?
A: The value was “above 0.5 % (v/v)”.

Q: With `CCC(C)NCC(=O)N(CC(=O)N(CC(=O)N(CC(=O)N(CC(=O)N(CC(=O)N(CC(=O)N(CC(=O)N(CC(=O)N(CC(N)=O)CC(C)O)C(C)CC)C(C)CC)C(C)CC)CC(C)O)CC(C)O)CC(C)O)C(C)CC)C(C)CC` (stereo not drawn) [Compound 2, Nsb-Nsb-Nsb-Nhp-Nhp-Nhp-Nsb-Nsb-Nsb-Nhp] as the compound, how does the “reduction of necessary EG concentration while preventing ice formation (ice ring scores, FIG. 3D)” value [1] read?
A: The value was “significantly reduced necessary EG concentrations while preventing ice formation”.

Q: Which ice crystal formation [2] does the source give for `OCCO` [EG, ethylene glycol, reference compound] here?
A: The ice crystal formation was “significant ice crystal formation”.

Q: And the “ice formation after flash freezing (XRD, FIG. 3B)” value ([1]; 30% (v/v) EG alone)?
A: The value was “partial vitrification with the presence of cubic ice”.

Q: Which results are given for `CCC(C)NCC(=O)N(CC(=O)N(CC(=O)N(CC(=O)N(CC(=O)N(CC(=O)N(CC(=O)N(CC(=O)N(CC(=O)N(CC(N)=O)C(C)CC)C(C)CC)CC(C)O)CC(C)O)C(C)CC)C(C)CC)CC(C)O)CC(C)O)C(C)CC` (stereo not drawn) [Compound 12, Nsb-Nsb-Nhp-Nhp-Nsb-Nsb-Nhp-Nhp-Nsb-Nsb]?
A: reduction of necessary EG concentration while preventing ice formation (ice ring scores, FIG. 3D) [1]: significantly reduced necessary EG concentrations while preventing ice formation; ice formation after flash freezing (XRD, FIG. 3A) ([1]; Compound 12 5 mg/mL (0.5% (w/v)) + EG 17.5% (v/v) in water, stream of liquid nitrogen vapor): complete vitrification; also recorded: ice-free; also recorded: completely eliminate all ice formation; anti-icing effect in comparison to EG at the same molar concentration ([1]; Compound 12 5 mg/mL + EG 17.5% (v/v)): 500 times; vitrification / ice formation on flash freezing in liquid nitrogen ([3]; 22.5% EG + 5 mg/ml (0.5% w/v) Compound 12 + buffer, −196° C.): complete vitrification with no ice formation; also recorded: able to vitrify; also recorded: vitrified; time to bypass devitrification upon rewarming ([3]; 22.5% EG + 5 mg/ml Compound 12, 37° C. water bath): less than 2 seconds; state after overnight in −20° C. freezer ([3]; 22.5% EG + 5 mg/ml Compound 12, 100 μL samples): completely unfrozen; also recorded: remained unfrozen; behaviour during rewarming / thawing ([3]; 22.5% EG + 5 mg/ml Compound 12, rewarming at 37° C.): active de-icer during thawing; also recorded: unfroze (within two seconds); toxicity (MTT assay) (HEK 293 cell line; HEK 293, at 0.5% w/v): did not show toxicity; toxicity (MTT assay) (HEK 293 cell line; HEK 293, at concentrations four times greater than 0.5% w/v): did not show significant toxicity; toxicity compared with culture media alone (MTT assay) (HEK 293 cell line; HEK 293, serial dilutions, 37° C., about 3 to 5 days): did not significantly deviate from the that of culture media alone; cell survival after freeze-thaw versus EG alone (FIG. 8) (HEK 293 cells; HEK 293, buffer + EG 22.5% (v/v) + 5 mg/mL Compound 12, liquid nitrogen, viability 12 hours post-thaw): greatly improved cell survival; cryopreservation compared to VS2E and M22 (HEK 293 cells; HEK 293, formulation containing 5 mg/mL Compound 12): superior cryopreservation; post-thaw survival of the cells (HEK 293 cells; HEK 293, formulation with 5 mg/mL Compound 12 plus mixture of glycols, disaccharides, general buffer, vitrified in liquid nitrogen, 16 hours post-thaw): 98%; devitrification on rewarming compared to sample lacking Compound 12 (HEK 293 cells; [4]): bypassed much more rapidly; vitrification during the freezing process (HEK 293 cells; [4]): complete vitrification without ice formation
